Source: patent US4791197A, “Cephalosporin compounds” (priority 1984, dated 1988)
Counter-ions that a name gives are not always drawn.

Tests used:
Assay in all cases: MIC against growth of bacteria by agar-dilution method
Type in all cases: cell-based
[1] = tested on: Escherichia coli NIHJ JC-2; settings: NIHJJC2
Description: (§1) The compounds of this invention are all novel compounds.

[2] = tested on: Proteus vulgaris GN 76; settings: GN76
Description: as §1

[3] = tested on: Salmonella typhimurium LT-2; settings: Salmonella enterica
Description: as §1

[4] = tested on: Staphylococcus aureus 209P JC-1
Description: as §1

[5] = tested on: Proteus mirabillis GN 79
Description: as §1

[6] = tested on: Serratia marcescens No. 1
Description: as §1

[7] = tested on: Staphylococcus aureus Smith
Description: as §1

[8] = tested on: Pseudomonas aeruginosa MB 3833; settings: MB3833
Description: as §1

[9] = tested on: Klebsiella pneumoniae PCI 602; settings: PCI602
Description: as §1

[10] = tested on: Proteus rettgeri GN 624; settings: Providencia rettgeri, GN624
Description: as §1

MIC [1]	MIC [2]	MIC [3]	MIC [4]	MIC [5]	MIC [6]	MIC [7]	MIC [8]	MIC [9]	MIC [10]	Compound
0.78 µg/mL	0.39 µg/mL	0.39 µg/mL	3.13 µg/mL	0.2 µg/mL	0.1 µg/mL	3.13 µg/mL	> 50 µg/mL	0.78 µg/mL	≤ 0.025 µg/mL	Cc1nnc(SCC2=C(C(=O)O)N3C(=O)C(NC(=O)/C(=C\C(=O)O)c4csc(N)n4)C3SC2)s1 (stereo not drawn) [Example 2, 7-[2-(2-aminothiazol-4-yl)-2-carboxymethylene-acetamido]-3-(5-methyl-1,3,4-thiadiazol-2-yl)thiomethyl-3-cephem-4-carboxylic acid (Z-isomer) trifluoroacetate]
0.39 µg/mL	3.13 µg/mL	0.39 µg/mL	0.2 µg/mL	1.56 µg/mL	0.78 µg/mL	0.39 µg/mL	> 50 µg/mL	0.78 µg/mL	0.1 µg/mL	C[n+]1ccc(SCC2=C(C(=O)O)N3C(=O)C(NC(=O)/C(=C\C(=O)O)c4csc(N)n4)C3SC2)cc1 (stereo not drawn) [Example 7, 7-[2-(2-aminothiazol-4-yl)-2-carboxymethyleneacetamido]-3-(1-methylpyridinium-4-yl)thiomethyl-3-cephem-4-carboxylic acid (Z-isomer) trifluoroacetate]
12.5 µg/mL	> 50 µg/mL	12.5 µg/mL	0.78 µg/mL	50 µg/mL	25 µg/mL	0.78 µg/mL	> 50 µg/mL	25 µg/mL	3.13 µg/mL	C[n+]1ccc(SCC2=C(C(=O)O)N3C(=O)C(NC(=O)/C(=C/C(=O)O)c4csc(N)n4)C3SC2)cc1 (stereo not drawn) [Example 10, 7-[2-(2-aminothiazol-4-yl)-2-carboxymethylene-acetamido]-3-(1-methylpyridinium-4-yl)thiomethyl-3-cephem-4-carboxylic acid (E-isomer) trifluoroacetate]
